How the values were obtained:
[1] = target: T1, Neutrophil elastase (Homo sapiens, UniProt P08246); assay: In vitro inhibitory activity against human neutrophil elastase (HNE) catalyzed hydrolysis of the synthetic substrate MeO-Suc-Ala- Ala-Pro-Val-pN
T1 sequence (P08246 whole entry): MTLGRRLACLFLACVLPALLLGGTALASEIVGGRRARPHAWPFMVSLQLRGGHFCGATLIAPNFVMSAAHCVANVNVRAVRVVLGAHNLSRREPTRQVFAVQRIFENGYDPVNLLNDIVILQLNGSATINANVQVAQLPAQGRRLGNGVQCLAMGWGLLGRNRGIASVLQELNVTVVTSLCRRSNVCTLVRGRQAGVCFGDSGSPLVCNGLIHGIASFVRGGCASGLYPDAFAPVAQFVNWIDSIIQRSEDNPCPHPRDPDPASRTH

[2] = target: T1, Neutrophil elastase; assay: In vitro inhibitory activity against human neutrophil elastase (HNE) catalyzed hydrolysis of the synthetic substrate MeO-Suc-Ala- Ala-Pro-Val-pN; 'b' means could not be accurately determined due to low solubility

SMILES	Ki [1] [nM]	Ki [2]
CCOc1cccnc1C(=O)[C@@H](NC(=O)[C@@H]1CCCN1C(=O)[C@@H](NC(=O)OCc1ccccc1)C(C)C)C(C)C	87000	–
CC(C)[C@H](NC(=O)[C@@H]1CCCN1C(=O)[C@@H](NC(=O)OCc1ccccc1)C(C)C)C(=O)c1cc2ccccc2s1	–	Could not be accurately determined due to low solubility
CC(C)[C@H](NC(=O)[C@@H]1CCCN1C(=O)[C@@H](NC(=O)OCc1ccccc1)C(C)C)C(=O)c1nnn(C)n1	49	–
CCCCC(=O)C(=O)[C@@H](NC(=O)[C@@H]1CCCN1C(=O)[C@@H](NC(=O)OCc1ccccc1)C(C)C)C(C)C	1.6	–
CC(C)[C@H](NC(=O)[C@@H]1CCCN1C(=O)[C@@H](NC(=O)OCc1ccccc1)C(C)C)C(=O)c1nnnn1C	410	–
CC(C)[C@H](NC(=O)[C@@H]1CCCN1C(=O)[C@@H](NC(=O)OCc1ccccc1)C(C)C)C(=O)c1ncoc1-c1ccccc1	330	–
CC(C)[C@H](NC(=O)[C@@H]1CCCN1C(=O)[C@@H](NC(=O)OCc1ccccc1)C(C)C)C(=O)C(N)=O	1.8	–

Further compounds by falling Ki [1], results first:

Ki [1] [nM]	SMILES	Ki [2]
1.2	CC(C)[C@H](NC(=O)[C@@H]1CCCN1C(=O)[C@@H](NC(=O)OCc1ccccc1)C(C)C)C(=O)C1=N[C@@H](C)CO1	–
0.6	COC(=O)C(=O)[C@@H](NC(=O)[C@@H]1CCCN1C(=O)[C@@H](NC(=O)OCc1ccccc1)C(C)C)C(C)C	–
0.4	CC(C)[C@H](NC(=O)OCc1ccccc1)C(=O)N1CCC[C@H]1C(=O)N[C@H](C(=O)C(F)(F)C(=O)NCc1ccccc1)C(C)C	–
